Experimental findings from patent publication US9850227B2 (YUHAN CORPORATION, priority 2011, dated 2017) are described below.

pEC50: −log10 of the molar value. Where a name gives a salt, the structure may show the parent alone.

T1 sequence (Q13639 1-387 isoform Q13639-2): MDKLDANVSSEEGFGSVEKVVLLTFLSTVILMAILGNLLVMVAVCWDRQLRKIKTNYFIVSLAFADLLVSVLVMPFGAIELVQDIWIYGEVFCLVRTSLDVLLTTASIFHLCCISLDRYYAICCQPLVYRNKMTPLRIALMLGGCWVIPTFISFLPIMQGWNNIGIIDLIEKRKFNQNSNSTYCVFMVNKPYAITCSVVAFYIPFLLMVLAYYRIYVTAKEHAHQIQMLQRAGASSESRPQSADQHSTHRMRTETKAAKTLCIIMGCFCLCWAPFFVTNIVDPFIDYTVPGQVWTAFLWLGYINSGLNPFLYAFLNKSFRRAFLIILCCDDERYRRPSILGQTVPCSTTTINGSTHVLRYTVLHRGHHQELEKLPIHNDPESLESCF

This assay concerns the target T1, human 5-HT4(a) (Homo sapiens, UniProt Q13639).
T1 construct: host or cells: GeneBIAzer HTR4-CRE-bla CHO-K1 cells
Nature of the assay: Evaluation of agonistic activity in CHO-K1 cells expressing human 5-HT4(a) (GeneBIAzer HTR4-CRE-bla CHO-K1 cells, beta-lactamase fluorescence ratio, EC50 from 8 concentrations). In kind it is cell-based. The method in brief:
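HTR4-CRE-bla CHO-K1 cells (10^4 per well, overnight in 1% FBS medium) exposed to compound for 5 h, then beta-lactamase substrate 2 h in the dark. Fluorescence ratio at 465/535 nm after 410 nm excitation; EC50 by non-linear regression over 8 concentrations.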
On to `CCCc1cc(N2CCCCC2CCO)nc(Nc2ccc3cc[nH]c3c2)n1` (centres unmarked) [Example 74, 2-{1-[2-(1H-indol-6-ylamino)-6-propylpyrimidin-4-yl]piperidin-2-yl}ethanol], for which the pEC50 was 10.20. As for `CCCc1cc(N2CCC[C@@H](NC(=O)CO)C2)nc(Nc2ccc(C)c(C#N)c2)n1` [Example 244, (R)—N-{1-[2-(3-cyano-4-methylphenylamino)-6-propylpyrimidin-4-yl]piperidin-3-yl}-2-hydroxyacetamide], the negative-log EC50 (pEC50) was 10.70. Next, `CCCc1cc(N2CCC[C@@H](NCCC(C)C)C2)nc(Nc2ccc(C)c(C#N)c2)n1` [Example 210, (R)-5-{4-[3-(isopentylamino)piperidin-1-yl]-6-propylpyrimidin-2-ylamino}-2-methylbenzonitrile]: 10.66; `CCCc1cc(N2CCCCC2CCO)nc(Nc2ccc(N)c(C#N)c2)n1` (centres unmarked) [Example 179, 2-amino-5-{4-[2-(2-hydroxyethyl)piperidin-1-yl]-6-propylpyrimidin-2-ylamino}benzonitrile]: 10.57; `CCCc1cc(N2CCC[C@H](NCc3cccs3)C2)nc(Nc2ccc(C)c(C#N)c2)n1` [Example 160, (S)-2-methyl-5-(4-propyl-6-{3-[(thiophen-2-ylmethyl)amino]piperidin-1-yl}pyrimidin-2-ylamino)benzonitrile]: 9.90. Next, `CCCc1cc(N2CCC[C@@H](NCC3CCCC3)C2)nc(Nc2ccc(C)c(C#N)c2)n1` [Example 218, (R)-5-{4-[3-(cyclopentylmethylamino)piperidin-1-yl]-6-propylpyrimidin-2-ylamino}-2-methylbenzonitrile]: 10.80.

As for `CCCc1cc(N2CCC[C@@H](NCC3CC3)C2)nc(Nc2ccc(F)c(C#N)c2)n1` [Example 226, (R)-5-{4-[3-(cyclopropylmethylamino)piperidin-1-yl]-6-propylpyrimidin-2-ylamino}-2-fluorobenzonitrile], the negative-log EC50 (pEC50) is 10.15. As to `CCCc1cc(N2CCCCC2CCO)nc(Nc2cccc([N+](=O)[O-])c2)n1` (centres unmarked) [Example 141, 2-{1-[2-(3-nitrophenylamino)-6-propylpyrimidin-4-yl]piperidin-2-yl}ethanol], the pEC50 was 9.82. Next, `CCCc1cc(N2CCCC3CCCCC32)nc(Nc2cccc(C#N)c2)n1` (centres unmarked) [Example 187, 3-[4-(octahydroquinolin-1(2H)-yl)-6-propylpyrimidin-2-ylamino]benzonitrile]: 9.62; `CCCc1cc(N2CCC[C@H](NCC)C2)nc(Nc2ccc(C)c(C#N)c2)n1` [Example 296, (S)-5-[4-(3-ethylaminopiperidin-1-yl)-6-propylpyrimidin-2-ylamino]-2-methylbenzonitrile dihydrochloride]: 10.82. The same measure for `CCCc1cc(N2CCC[C@@H](NC(C)=O)C2)nc(Nc2cc(N)cc(C#N)c2)n1` [Example 274, (R)—N-{1-[2-(3-amino-5-cyanophenylamino)-6-propylpyrimidin-4-yl]piperidin-3-yl}acetamide]: 11.22. The same measure for `CCCCc1cc(N2CCC[C@@H](NC)C2)nc(Nc2ccc(N)c([N+](=O)[O-])c2)n1` [Example 328, (R)—N^1-{4-butyl-6-[3-(methylamino)piperidin-1-yl]pyrimidin-2-yl}-3-nitrobenzene-1,4-diamine dihydrochloride]: 11.54. On to `CCCc1cc(N2CCC[C@@H](NC(=O)CO)C2)nc(Nc2cc(N)cc(C(F)(F)F)c2)n1` [Example 247, (R)—N-(1-{2-[3-amino-5-(trifluoromethyl)phenylamino]-6-propylpyrimidin-4-yl}piperidin-3-yl)-2-hydroxyacetamide], for which the negative-log EC50 (pEC50) is 10.64.

As to `CCCc1cc(N2CCCCC2CCO)nc(Nc2ccc3nc(C(F)(F)F)[nH]c3c2)n1` (centres unmarked) [Example 136, 2-(1-{6-propyl-2-[2-(trifluoromethyl)-1H-benzo[d]imidazol-6-ylamino]pyrimidin-4-yl}piperidin-2-yl)ethanol], the negative logarithm of the EC50 (pEC50) is 9.46. The same measure for `CCCc1cc(N2CCC[C@@H](NCC)C2)nc(Nc2ccc(F)c(C#N)c2)n1` [Example 271, (R)-5-[4-(3-ethylaminopiperidin-1-yl)-6-propylpyrimidin-2-ylamino]-2-fluorobenzonitrile]: 10.59; for `CCCc1cc(N2CCC[C@@H](N)C2)nc(Nc2ccc(Cl)c(N)c2)n1` [Example 262, (R)—N^1-[4-(3-aminopiperidin-1-yl)-6-propylpyrimidin-2-yl]-4-chlorobenzene-1,3-diamine]: 10.68.

As for `CCCc1cc(N2CCC[C@@H](NCC3CC3)C2)nc(Nc2cc(N)cc(C#N)c2)n1` [Example 229, (R)-3-amino-5-{4-[3-(cyclopropylmethylamino)piperidin-1-yl]-6-propylpyrimidin-2-ylamino}benzonitrile], the pEC50 is 11.39.

As for `CCCCc1cc(N2CCC[C@@H](NC(C)=O)C2)nc(Nc2cc(N)cc(C(F)(F)F)c2)n1` [Example 237, (R)—N-{1-[2-(3-amino-5-trifluoromethylphenylamino)-6-butylpyrimidin-4-yl]piperidin-3-yl}acetamide], the pEC50 was 10.85. Next, `CCCCc1cc(N2CCC[C@@H](N)C2)nc(Nc2ccc(C)c(F)c2)n1` [Example 344, (R)-4-(3-aminopiperidin-1-yl)-6-butyl-N-(3-fluoro-4-methylphenyl)pyrimidin-2-amine]: 9.35. Next, `CCCCc1cc(N2CCC[C@@H](NCC)C2)nc(Nc2ccc(C)c(C#N)c2)n1` [Example 299, (R)-5-({4-butyl-6-[3-(ethylamino)piperidin-1-yl]pyrimidin-2-yl}amino)-2-methylbenzonitrile]: 11.40; `CCCc1cc(N2CCCCC2CCO)nc(Nc2cccc(C#N)c2)n1` (centres unmarked) [Example 131, 3-{4-[2-(2-hydroxyethyl)piperidin-1-yl]-6-propylpyrimidin-2-ylamino}benzonitrile]: 9.92; `CCCCc1cc(N2CCC[C@@H](N)C2)nc(Nc2cc(N)cc(C#N)c2)n1` [Example 342, (R)-3-amino-5-{[4-(3-aminopiperidin-1-yl)-6-butylpyrimidin-2-yl]amino}benzonitrile]: 11.39. The same measure for `CCCCc1cc(N2CCC[C@@H](N)C2)nc(Nc2ccc(F)c(C(F)(F)F)c2)n1` [Example 348, (R)-4-(3-aminopiperidin-1-yl)-6-butyl-N-[4-fluoro-3-(trifluoromethyl)phenyl]pyrimidin-2-amine]: 9.99; for `CCCc1cc(N2CCC[C@@H](NCC(C)C)C2)nc(Nc2ccc(C)c(C#N)c2)n1` [Example 209, (R)-5-{4-[3-(isobutylamino)piperidin-1-yl]-6-propylpyrimidin-2-ylamino}-2-methylbenzonitrile]: 10.82; for `CCCc1cc(N2CCCCC2)nc(Nc2ccc(F)c([N+](=O)[O-])c2)n1` [Example 40, N-(4-fluoro-3-nitrophenyl)-4-(piperidin-1-yl)-6-propylpyrimidin-2-amine]: 9.59. Consider `CCCc1cc(N2CCC[C@@H](NCc3ccc(O)cc3)C2)nc(Nc2ccc(C)c(C#N)c2)n1` [Example 219, (R)-5-{4-[3-(4-hydroxybenzylamino)piperidin-1-yl]-6-propylpyrimidin-2-ylamino}-2-methylbenzonitrile], for which the pEC50 was 11.00.

In general, pEC50 refers to the EC50 on a negative log10 scale, so that one unit is a factor of ten.
